Laboratory results from ChEMBL document CHEMBL1201862, “PubChem BioAssay data set” (2004).
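48-hour exposure; five concentrations; linearly interpolated endpoints. At the GI50, growth is halved.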 Activity calls are given as the source filed them. Rule as the data show it: active = GI50 up to about 1.1 µM and inactive = higher.

How the values were obtained:
Assay in all cases: inhibition of tumour cell growth, NCI panel, 48 h
NCI-H23 = test system: NCI-H23
OVCAR-5 = test system: OVCAR-5
T47D = test system: T47D
UO-31 = test system: UO-31
SF-295 = test system: SF-295
BT-549 = test system: BT-549
COLO 205 = test system: COLO 205
MDA-MB-231 = test system: MDA-MB-231
HOP-92 = test system: HOP-92
NCI/ADR-RES = test system: NCI/ADR-RES
SF-539 = test system: SF-539
HCC 2998 = test system: HCC 2998
K562 = test system: K562
Malme-3M = test system: Malme-3M
PC-3 = test system: PC-3
SNB-75 = test system: SNB-75
KM12 = test system: KM12
786-0 = test system: 786-0
HT-29 = test system: HT-29
Hs-578T = test system: Hs-578T
CAKI-1 = test system: CAKI-1
SK-MEL-28 = test system: SK-MEL-28
M14 = test system: M14
RXF 393 = test system: RXF 393
IGROV-1 = test system: IGROV-1
NCI-H460 = test system: NCI-H460
SK-OV-3 = test system: SK-OV-3
HOP-62 = test system: HOP-62
NCI-H522 = test system: NCI-H522
SN12C = test system: SN12C
OVCAR-3 = test system: OVCAR-3
MCF7 = test system: MCF7
SF-268 = test system: SF-268
SK-MEL-2 = test system: SK-MEL-2
DU-145 = test system: DU-145
NCI-H226 = test system: NCI-H226
UACC-62 = test system: UACC-62
SNB-19 = test system: SNB-19
OVCAR-4 = test system: OVCAR-4
RPMI-8226 = test system: RPMI-8226
HCT-116 = test system: HCT-116
TK-10 = test system: TK-10
ACHN = test system: ACHN
SK-MEL-5 = test system: SK-MEL-5
HCT-15 = test system: HCT-15
A549 = test system: A549
OVCAR-8 = test system: OVCAR-8
U-251 = test system: U-251
MDA-MB-435 = test system: MDA-MB-435
UACC-257 = test system: UACC-257
MDA-N = test system: MDA-N
A498 = test system: A498
SW-620 = test system: SW-620
MOLT-4 = test system: MOLT-4
HL-60 = test system: HL-60
CCRF-CEM = test system: CCRF-CEM
LOX IMVI = test system: LOX IMVI
EKVX = test system: EKVX
SR = test system: SR

Fc1cccc(F)c1C(Nc1nncs1)Nc1nncs1
GI50 (NCI-H23): > 100 µM (inactive)
GI50 (OVCAR-5): > 100 µM (inactive)
GI50 (T47D): > 100 µM (inactive)
GI50 (UO-31): > 100 µM (inactive)
GI50 (SF-295): > 100 µM (inactive)
GI50 (BT-549): > 100 µM (inactive)
GI50 (COLO 205): > 100 µM (inactive)
GI50 (MDA-MB-231): > 100 µM (inactive)
GI50 (HOP-92): > 100 µM (inactive)
GI50 (NCI/ADR-RES): > 100 µM (inactive)
GI50 (SF-539): 49 µM (inactive)
GI50 (HCC 2998): > 100 µM (inactive)
GI50 (K562): > 100 µM (inactive)
GI50 (Malme-3M): > 100 µM (inactive)
GI50 (PC-3): > 100 µM (inactive)
GI50 (SNB-75): > 100 µM (inactive)
GI50 (KM12): > 100 µM (inactive)
GI50 (786-0): > 100 µM (inactive)
GI50 (HT-29): 47.2 µM (inactive)
GI50 (Hs-578T): > 100 µM (inactive)
GI50 (CAKI-1): > 100 µM (inactive)
GI50 (SK-MEL-28): > 100 µM (inactive)
GI50 (M14): 59.6 µM (inactive)
GI50 (RXF 393): > 100 µM (inactive)
GI50 (IGROV-1): > 100 µM (inactive)
GI50 (NCI-H460): > 100 µM (inactive)
GI50 (SK-OV-3): > 100 µM (inactive)
GI50 (HOP-62): > 100 µM (inactive)
GI50 (NCI-H522): > 100 µM (inactive)
GI50 (SN12C): > 100 µM (inactive)
GI50 (OVCAR-3): > 100 µM (inactive)
GI50 (MCF7): 97.7 µM (inactive)
GI50 (SF-268): > 100 µM (inactive)
GI50 (SK-MEL-2): > 100 µM (inactive)
GI50 (DU-145): > 100 µM (inactive)
GI50 (NCI-H226): > 100 µM (inactive)
GI50 (UACC-62): > 100 µM (inactive)
GI50 (SNB-19): > 100 µM (inactive)
GI50 (OVCAR-4): > 100 µM (inactive)
GI50 (RPMI-8226): > 100 µM (inactive)
GI50 (HCT-116): 50.5 µM (inactive)
GI50 (TK-10): > 100 µM (inactive)
GI50 (ACHN): > 100 µM (inactive)
GI50 (SK-MEL-5): > 100 µM (inactive)
GI50 (HCT-15): 91.2 µM
GI50 (A549): > 100 µM (inactive)
GI50 (OVCAR-8): > 100 µM (inactive)
GI50 (U-251): > 100 µM (inactive)
GI50 (MDA-MB-435): 51.3 µM (inactive)
GI50 (UACC-257): > 100 µM (inactive)
GI50 (MDA-N): 38 µM (inactive)
GI50 (A498): > 100 µM (inactive)
GI50 (SW-620): 86.7 µM (inactive)

O=C(NC(=S)Nc1ccc2c(c1)Sc1ccccc1O2)c1ccccc1
GI50 (NCI-H23): 30.8 µM (inactive)
GI50 (OVCAR-5): 77.3 µM (inactive)
GI50 (T47D): 41.3 µM (inactive)
GI50 (UO-31): > 100 µM (inactive)
GI50 (SF-295): 24.3 µM (inactive)
GI50 (BT-549): 29.6 µM (inactive)
GI50 (MOLT-4): 27.8 µM (inactive)
GI50 (COLO 205): 38.8 µM (inactive)
GI50 (MDA-MB-231): 21.6 µM (inactive)
GI50 (HOP-92): 24.2 µM (inactive)
GI50 (NCI/ADR-RES): 39.9 µM (inactive)
GI50 (SF-539): 22.6 µM (inactive)
GI50 (HCC 2998): 7.46 µM (inactive)
GI50 (K562): 6.27 µM (inactive)
GI50 (Malme-3M): 23.1 µM (inactive)
GI50 (HL-60): 13.5 µM (inactive)
GI50 (PC-3): 11.2 µM (inactive)
GI50 (SNB-75): 15.7 µM (inactive)
GI50 (KM12): 29.5 µM (inactive)
GI50 (786-0): 20.3 µM (inactive)
GI50 (CCRF-CEM): 23 µM (inactive)
GI50 (LOX IMVI): 39.1 µM (inactive)
GI50 (HT-29): 35.4 µM (inactive)
GI50 (Hs-578T): 39.6 µM (inactive)
GI50 (EKVX): 36.1 µM (inactive)
GI50 (CAKI-1): 47.8 µM (inactive)
GI50 (SK-MEL-28): 22.2 µM (inactive)
GI50 (M14): 43.2 µM (inactive)
GI50 (RXF 393): 20.4 µM (inactive)
GI50 (IGROV-1): 29.6 µM (inactive)
GI50 (NCI-H460): 48 µM (inactive)
GI50 (SK-OV-3): 29 µM (inactive)
GI50 (HOP-62): 27.4 µM (inactive)
GI50 (NCI-H522): 31.8 µM (inactive)
GI50 (SN12C): 50.1 µM (inactive)
GI50 (OVCAR-3): 35.7 µM (inactive)
GI50 (MCF7): 34.2 µM (inactive)
GI50 (SF-268): 41.4 µM (inactive)
GI50 (SK-MEL-2): 14.1 µM (inactive)
GI50 (DU-145): 36.2 µM (inactive)
GI50 (NCI-H226): 53.7 µM (inactive)
GI50 (UACC-62): 22.5 µM (inactive)
GI50 (SNB-19): 34 µM (inactive)
GI50 (OVCAR-4): 19.8 µM (inactive)
GI50 (RPMI-8226): 51.3 µM (inactive)
GI50 (HCT-116): 41 µM (inactive)
GI50 (TK-10): 20.8 µM (inactive)
GI50 (ACHN): 31.3 µM (inactive)
GI50 (SK-MEL-5): 20.8 µM (inactive)
GI50 (HCT-15): 14 µM
GI50 (SR): 3.67 µM (inactive)
GI50 (A549): 45.5 µM (inactive)
GI50 (OVCAR-8): 34.4 µM (inactive)
GI50 (U-251): 20.7 µM (inactive)
GI50 (MDA-MB-435): 3.55 µM (inactive)
GI50 (UACC-257): 33.2 µM (inactive)
GI50 (MDA-N): 3.94 µM (inactive)
GI50 (SW-620): 32.1 µM (inactive)

Cc1cnc2c(c1)C(=O)N(c1ccc(Oc3ccccc3)cc1)S2(=O)=O
GI50 (NCI-H23): > 100 µM (inactive)
GI50 (OVCAR-5): > 100 µM (inactive)
GI50 (T47D): > 100 µM (inactive)
GI50 (UO-31): > 100 µM (inactive)
GI50 (SF-295): > 100 µM (inactive)
GI50 (BT-549): > 100 µM (inactive)
GI50 (MOLT-4): > 100 µM (inactive)
GI50 (COLO 205): > 100 µM (inactive)
GI50 (MDA-MB-231): > 100 µM (inactive)
GI50 (HOP-92): > 100 µM (inactive)
GI50 (NCI/ADR-RES): > 100 µM (inactive)
GI50 (SF-539): > 100 µM (inactive)
GI50 (HCC 2998): > 100 µM (inactive)
GI50 (K562): > 100 µM (inactive)
GI50 (Malme-3M): 67.1 µM (inactive)
GI50 (HL-60): > 100 µM (inactive)
GI50 (PC-3): > 100 µM (inactive)
GI50 (SNB-75): > 100 µM (inactive)
GI50 (KM12): > 100 µM (inactive)
GI50 (786-0): > 100 µM (inactive)
GI50 (CCRF-CEM): > 100 µM (inactive)
GI50 (LOX IMVI): > 100 µM (inactive)
GI50 (HT-29): > 100 µM (inactive)
GI50 (Hs-578T): > 100 µM (inactive)
GI50 (EKVX): > 100 µM (inactive)
GI50 (CAKI-1): > 100 µM (inactive)
GI50 (SK-MEL-28): > 100 µM (inactive)
GI50 (M14): > 100 µM (inactive)
GI50 (IGROV-1): 57.8 µM (inactive)
GI50 (NCI-H460): > 100 µM (inactive)
GI50 (SK-OV-3): > 100 µM (inactive)
GI50 (HOP-62): > 100 µM (inactive)
GI50 (NCI-H522): 57.7 µM (inactive)
GI50 (SN12C): > 100 µM (inactive)
GI50 (OVCAR-3): > 100 µM (inactive)
GI50 (MCF7): > 100 µM (inactive)
GI50 (SF-268): > 100 µM (inactive)
GI50 (SK-MEL-2): > 100 µM (inactive)
GI50 (DU-145): > 100 µM (inactive)
GI50 (NCI-H226): 59.6 µM (inactive)
GI50 (UACC-62): > 100 µM (inactive)
GI50 (SNB-19): > 100 µM (inactive)
GI50 (OVCAR-4): 83.8 µM (inactive)
GI50 (RPMI-8226): > 100 µM (inactive)
GI50 (HCT-116): > 100 µM (inactive)
GI50 (TK-10): > 100 µM (inactive)
GI50 (ACHN): > 100 µM (inactive)
GI50 (SK-MEL-5): > 100 µM (inactive)
GI50 (HCT-15): > 100 µM
GI50 (SR): > 100 µM (inactive)
GI50 (A549): > 100 µM (inactive)
GI50 (OVCAR-8): > 100 µM (inactive)
GI50 (U-251): > 100 µM (inactive)
GI50 (MDA-MB-435): > 100 µM (inactive)
GI50 (UACC-257): > 100 µM (inactive)
GI50 (MDA-N): > 100 µM (inactive)
GI50 (SW-620): > 100 µM (inactive)
